Measurements taken from patent US7202280B2, “Methods for the treatment and prevention of pancreatitis and for induction of liver regeneration” (priority 2002, dated 2007).

Tests used:
[1] = system: MT-SSAT transgenic rats; assay: Zinc-induced pancreatitis, prevention by pretreatment with analogue (plasma α-amylase, pancreatic histology); assay type: in vivo, rat; parameters: key to Histological scoring (0 to 4): Edema / Histological scoring (0 to 4): Inflammation: 0 (absent); 1 (minimal); 4 (maximal); conditions: for Histological scoring (0 to 4): Edema / Histological scoring (0 to 4): Inflammation / Histological scoring (0 to 4): Necrosis / Histological scoring (0 to 4): Vacuolization: Zn; for Plasma α-amylase activity / acinar necrosis (pancreatic histology): transgenic rats; for Plasma α-amylase activity: zinc 10 mg/kg; for acinar necrosis (pancreatic histology): zinc
Method: FIG. 2. Plasma α-amylase activity in syngenic and transgenic rats after zinc and methylspermidine. The animals were treated as in FIG. 1. Six to eight animals in each group. *p<0.05 as compared with zinc-treated animals. ***p<0.001 as compared with untreated animals. Me-spd, methylspermidine.
FIGS. 3a–3d. Histology of pancreas of transgenic rats after zinc and methylspermidine. The animals were treated as in FIGS. 1a–1d. Magnification ×125. […] The animals received zinc (10 mg/kg) 24 h before sacrifice without (FIG. 3b) or with methylspermidine (50 mg/kg) either as single dose 4 h before zinc (FIG. 3c) or as two doses 20 h and 4 h before zinc (FIG. 3d).
Formalin-fixed pancreatic specimens were embedded in paraffin, cut into 5-μm-thick slices, and stained with hematoxylin/eosin. The stained sections were coded and scored by the participating gastroenterologist (K.-H. H.) according to the method of Niederau et al. (Niederau, C., Liddle, R. A., Ferrell, L. D., and Grendell, J. H. (1986) J. Clin. Invest. 78, 1056–1063).
FIG. 3 depicts pancreatic histology in transgenic animals after saline (FIG. 3a), after zinc alone (FIG. 3b), after zinc and single dose of the analogue (FIG. 3c) and after zinc and two doses of the analogue (FIG. 3d). The acinar structure of untreated transgenic animal is entirely normal (FIG. 3a) whereas zinc induced distinct pancreatitis with more than 50% of the acinar cells undergoing necrosis (FIG. 3b). […] Table A summarizes the histological scoring of pancreatic specimens from all animals. […] A single dose of the analogue administered prior to zinc reduced the extent of necrosis while after two repeated doses of the compound very little, if any, necrosis was present (Table A).
MT-SSAT (UKUR30) transgenic rats received zinc (10 mg/kg i.p.) 24 h before sacrifice either alone or in the combination with Me2SPM (25 mg/kg i.p.) administered twice 20 h and 4 h before zinc. There were three animals in each group. Plasma amylase activity was measured as a marker of pancreatitis.

[2] = system: syngenic and transgenic rats; assay: Liver regeneration after partial hepatectomy (liver weight, PCNA labeling index, thymidine incorporation); assay type: in vivo, rat; conditions: for stimulation of DNA synthesis (thymidine incorporation): 25 mg/kg 20 h and 4 h before; for PCNA-positive hepatocytes: repeated experiment
Method: FIGS. 5a–5b. Liver weight (FIG. 5a) and PCNA labeling index (FIG. 5b) in syngenic and transgenic rats after partial hepatectomy and methylspermidine. Three to five animals in each group. *p<0.05, ***p<0.001 as compared with preoperative values. Md-spd, methylspermidine.
FIG. 10. Effect of polyamine analogues on thymidine incorporation in 24-h regenerating livers of SSAT transgenic rats. […] Ten μCi of tritiated thymidine was given 30 min before sacrifice. Three to four animals in each group.
The production of transgenic Wistar rats (UKUR30) and mice (UKU181) harboring metallothionein-SSAT fusion gene (Suppola, S., Pietilä, M., Parkkinen, J. J., Korhonen, V. P., Alhonen, L., Halmekytö, M., Porter, C. W., and Jänne, J. (1999) Biochem. J. 338, 311–316) has been described earlier (Alhonen, L., Parkkinen, J. J., Keinänen, T., Sinervirta, R., Herzig, K. H., and Jänne, J. (2000) Proc. Natl. Acad. Sci. U.S.A. 97, 8290–8295; Lukkarinen, J., Gröhn, O., Sinervirta, R., Järvinen, A., Kauppinen, R. A., Jänne, J., and Alhonen, L. (1997) Stroke 28, 639–645). Partial hepatectomy was carried out according to the original method of Higgins and Anderson (Higgins, G. H., and Anderson, R. M. (1931) Arch. Pathol. 12, 186–202). Treatments before partial hepatectomy and the determination of DNA synthesis were carried out as in (Räsänen, T. L., Alhonen, L., Sinervirta, R., Keinänen, T., Herzig, K. H., Suppola, S., Khomutov, A. R., Vepsäläinen, J., and Jänne, J. (2002) J. Biol. Chem. 277, 39867–39872). […] The animals were sacrificed 24 h after the second MDL72527 injection and liver pieces were frozen in liquid nitrogen, homogenized in buffer (25 mM Tris-HCl pH 7.4, 0.1 mM EDTA, 1 mM DTT). An aliquot of the homogenates was used for the polyamine assays. The homogenates were centrifuged (at 13 000×g, for 30 min, at 4° C.) and the supernatants were used for the enzyme activity assays. The Institutional Animal Care and Use Committee of the University of Kuopio and by the Provincial Government approved animal experiments.
PCNA was detected from formalin-fixed paraffin-embedded tissue section as described in detail earlier (Alhonen, L., Räsänen, T. L., Sinervirta, R., Parkkinen, J. J., Korhonen, V. P., Pietilä, M., and Jänne, J. (2002) Biochem. J. 362, 149–15).
PCNA was used as an indicator of proliferative activity during liver regeneration. Immunohistochemical detection of PCNA is a convenient and commonly used method to grade proliferative activity in various tissues. PCNA expression is closely correlated with the S-phase of the cell cycle (17). FIG. 5b depicts PCNA labeling index before partial hepatectomy and at 24 h postoperatively in syngenic and transgenic rats without or with methylspermidine treatment. In resting liver, only about 1% of the hepatocytes were PCNA-positive. In syngenic animals, the number of PCNA-positive cells increased sharply to over 30% at 24 h after the operation whereas in transgenic animals the number of positive cells remained at the low preoperative level at this time point (FIG. 5b). […] The experiment was repeated with other groups of syngenic and transgenic rats. In this experiment, PCNA-positive hepatocytes accounted for 0.5±0.1% in resting syngenic liver. The number of positive cells rose to 10.7±3.5% at 24 h postoperatively without the analogue (p<0.001) and to 9.8±1.5% with the analogue (p<0.001). The corresponding figures for the transgenic animals were 0.20±0.0 before the operation, 0.42±0.24% at 24 h postoperatively without methylspermidine and 25.9±4.9% with methylspermidine (p<0.001). It thus appears that the analogue completely reversed the proliferative block in transgenic livers.
Liver regeneration could be restored by a prior administration of α-methylspermidine (Räsänen, T. L., Alhonen, L., Sinervirta, R., Keinänen, T., Herzig, K. H., Suppola, S., Khomutov, A. R., Vepsäläinen, J., and Jänne, J. (2002) J. Biol. Chem. 277, 39867–39872). […]

[3] = MT-SSAT transgenic rats, zinc 10 mg/kg i.p. 24 h, Me2SPM 25 mg/kg i.p. 20 h and 4 h before zinc
[4] = SSAT transgenic rats, 24 h after partial hepatectomy

CC(N)CCNCCCCNCCC(C)N (stereo not drawn) [bis-α-methylspermine, 1,12-dimethylspermine]
Pancreatic histology [1, 3]: modest edema
plasma amylase [1, 3]: 2744 ± 837
prevention of pancreatitis ([1]; rats with depleted polyamine pools, 25 mg/kg 2 injections i.p. 20/4 hours prior to zinc): prevents pancreatitis
stimulation of DNA synthesis (thymidine incorporation) [2, 4]: about 10 fold

CC(N)CCNCCCCN (stereo not drawn) [α-methylspermidine, 1-methylspermidine]
Histological scoring (0 to 4): Edema ([1]; Sg rats, 1 × Me-spd 50 mg/kg): 1
Histological scoring (0 to 4): Inflammation ([1]; Sg rats, 1 × Me-spd 50 mg/kg): 1
Histological scoring (0 to 4): Necrosis ([1]; Sg rats, 1 × Me-spd 50 mg/kg): 0 (0, 0–5%)
Histological scoring (0 to 4): Vacuolization ([1]; Sg rats, 1 × Me-spd 50 mg/kg): 0 (0, 0–5%)
Histological scoring (0 to 4): Edema ([1]; Sg rats, 2 × Me-spd 50 mg/kg): 1
Histological scoring (0 to 4): Inflammation ([1]; Sg rats, 2 × Me-spd 50 mg/kg): 0
Histological scoring (0 to 4): Necrosis ([1]; Sg rats, 2 × Me-spd 50 mg/kg): 0 (0, 0–5%)
Histological scoring (0 to 4): Vacuolization ([1]; Sg rats, 2 × Me-spd 50 mg/kg): 0 (0, 0–5%)
Histological scoring (0 to 4): Edema ([1]; Tg rats, 1 × Me-spd 50 mg/kg): 1
Histological scoring (0 to 4): Inflammation ([1]; Tg rats, 1 × Me-spd 50 mg/kg): 1
Histological scoring (0 to 4): Necrosis ([1]; Tg rats, 1 × Me-spd 50 mg/kg): 2 (2, 15–35%)
Histological scoring (0 to 4): Vacuolization ([1]; Tg rats, 1 × Me-spd 50 mg/kg): 0 (0, 0–5%)
Histological scoring (0 to 4): Edema ([1]; Tg rats, 2 × Me-spd 50 mg/kg): 1
Histological scoring (0 to 4): Inflammation ([1]; Tg rats, 2 × Me-spd 50 mg/kg): 1
Histological scoring (0 to 4): Necrosis ([1]; Tg rats, 2 × Me-spd 50 mg/kg): 0–1
Histological scoring (0 to 4): Vacuolization ([1]; Tg rats, 2 × Me-spd 50 mg/kg): 1 (1, 5–15%)
Plasma α-amylase activity ([1]; single dose 50 mg/kg 4 h before zinc): decreased after a single dose
Plasma α-amylase activity ([1]; two doses 50 mg/kg 20 h and 4 h before zinc): fully normalized after two repeated doses
acinar necrosis (pancreatic histology) ([1]; single dose before zinc): very little necrosis was present
acinar necrosis (pancreatic histology) ([1]; two doses before zinc): none after two doses
thymidine incorporation (DNA synthesis) ([2]; SSAT transgenic rats, 24 h after partial hepatectomy, 5 mg/kg 20 h and 4 h before): only insignificantly increased DNA synthesis
stimulation of DNA synthesis (thymidine incorporation) [2, 4]: about 10 fold
liver weight gain ([2]; non-transgenic rats, 24 h after partial hepatectomy): no effect on the weight gain
PCNA-positive hepatocytes ([2]; syngenic rats, 24 h postoperatively with the analogue): 9.8±1.5%
PCNA-positive hepatocytes ([2]; transgenic rats, 24 h postoperatively with methylspermidine): 25.9±4.9%
PCNA labeling index ([2]; syngenic livers, 24 h after partial hepatectomy): did not change PCNA labeling index
PCNA-positive cells ([2]; transgenic liver, 24 h after partial hepatectomy, from about 1%): more than 40%
liver weight ([2]; transgenic rats, 24 h after partial hepatectomy): significantly increased the organ weight
